Measured values as given in US8507488B2, “Fused nitrogen containing heterocycles and compositions thereof as kinase inhibitors” (IRM LLC, priority 2008, dated 2013).

What was measured:
[1] = target: T1, Tel-TrkA (Homo sapiens, UniProt P04629); assay: Inhibition of proliferation of Ba/F3 cells expressing Tel-TrkA (BaF3/Tel-TrkA, luciferase/Bright Glo readout); type: cell-based; conditions: read-out: Ba/F3 Tel-TrkA IC 50
T1 construct: dimerization domain of Tel (ETV6) transcription factor (fusion partner, human ETV6 P41212); expressed in transfected cells; host or cells: luciferase expressing Ba/F3 murine hematopoietic progenitor cells; the other entry of the earlier key: ETV6 (P41212, Transcription factor ETV6)
Protocol: (§1) Test compounds were dissolved in DMSO (10 mM) and transferred into 1.4 mL flat bottom or V-shaped Matrix tubes carrying a unique 2D matrix chip by individual compound hubs. The numbers of these chips were distinctively linked to the individual compound identification numbers. The stock solutions were stored at −20° C. if not used immediately. For the test procedure the vials were defrosted and identified by a scanner whereby a working sheet is generated that guides the subsequent working steps.
(§2) Compound dilutions were made in 384 well plates. This format enabled the assay of maximally 28 individual test compounds at 12 concentrations (single points) including 2 reference compounds. The dilution protocol included the production of pre-dilution plates, master plates and assay plates: • Compound plates: 30 μL of individual compound (10 mM) DMSO solution including standard compound were transferred into columns 1 and 13 of a 384 well plate. 20 μL of DMSO were added to the rest of the wells and the compounds were serially diluted (1:3) by transferring 10 μL from a well in column 1 or 13 to the next well in column 2 or 14 respectively and successively with the help of a Minitrack robot. • Assay plates: Identical assay plates were then prepared by adding […] each of compound dilutions of the compound plates into 384-well “assay plates”. In the following the compounds were mixed with 50 μL of assays components (cells or enzyme) and tested for their inhibitory activity.
(§3) Compounds of Formula (I) were tested for their antiproliferative effect on Ba/F3 cells expressing either Tel-TrkA, Tel-TrkB or Tel-TrkC and an additional panel of 34 selected diverse kinases activated by fusion to the dimerizing partners Bcr or Tel (Abl, A1K, BMX, EphA3, EphB2, FGFR2, FGFR3, FGFR4, FGR, FLT1, FLT3, FLT4, FMS, IGF1R, InsR, JAK1, JAK2, JAK3, KDR, Kit, Lck, Lyn, MER, MET, PDGFRb, RET, RON, Ros-1, Src, Aurora, TIE2, TYK2, Tie1, ZAP70). The antiproliferative effect of these compounds on the different cell lines and on the non transformed cells were tested at 12 different concentrations of 3-fold serially diluted compounds in 384 well plates as described above (in media lacking IL3). The IC50 values of the compounds the different cell lines were determined from dose response curves.
(§4) The cell line used is the luciferase expressing Ba/F3 murine hematopoietic progenitor cell line transformed with human Tel-TrkA, Tel-TrkB or Tel-TrkC cDNAs (Ba/F3 EN A/B/C). These cells maintained in RPMI/10% fetal bovine serum (RPMI/FCS) supplemented with penicillin 50 mg/mL, streptomycin 50 mg/mL and L-glutamine […]. Untransformed Ba/F3 cells were similarly maintained with the addition 5 ng/ml of murine recombinant IL3. 50 μl of a Ba/F3 or Ba/F3 EN A/B/C cell suspension were plated in Greiner 384 well microplates (white)) at a density of 2000 cells per well. […] The cells were incubated for 48 hours at 37° C., 5% CO2. 25 μl of Bright Glo® (Promega) luciferase substrate is added to each well. The emited luminiscence is quantified using the ACQUEST™ luminescence system (Molecular Devices). IC50 values were calculated by linear regression analysis of the percentage inhibition of each compound at 12 concentrations.

[2] = target: T2, Tel-TrkB (Homo sapiens, UniProt Q16620); assay: Inhibition of proliferation of Ba/F3 cells expressing Tel-TrkB (BaF3/Tel-TrkB); type: cell-based; conditions: Ba/F3 Tel-TrkB cells; read-out: Ba/F3 Tel-TrkB IC 50
T2 construct: dimerization domain of Tel (ETV6) transcription factor (fusion partner, human ETV6 P41212); expressed in transfected cells; host or cells: luciferase expressing Ba/F3 murine hematopoietic progenitor cells; the other entry of the earlier key: ETV6 (P41212, Transcription factor ETV6)
Protocol: as §1, §2, §3, §4

[3] = target: T3, Tel-TrkC (Homo sapiens, UniProt Q16288); assay: Inhibition of proliferation of Ba/F3 cells expressing Tel-TrkC (BaF3/Tel-TrkC); type: cell-based; conditions: read-out: Ba/F3 Tel-TrkC IC 50
T3 construct: The cells also express luciferase as the viability read-out; it is not fused to the kinase; P41212 (Transcription factor ETV6)
Protocol: as §1, §2, §3
(§5) The cell line used is the luciferase expressing Ba/F3 murine hematopoietic progenitor cell line transformed with human Tel-TrkA, Tel-TrkB or Tel-TrkC cDNAs (Ba/F3 EN A/B/C). These cells maintained in RPMI/10% fetal bovine serum (RPMI/FCS) supplemented with penicillin 50 mg/mL, streptomycin 50 mg/mL and L-glutamine […]. Untransformed Ba/F3 cells were similarly maintained with the addition 5 ng/ml of murine recombinant IL3. 50 μl of a Ba/F3 or Ba/F3 EN A/B/C cell suspension were plated in Greiner 384 well microplates (white)) at a density of 2000 cells per well. 50 nl of serially diluted test compound (10-0.0001 mM in DMSO solution) is added to each well. The cells were incubated for 48 hours at 37° C., 5% CO2. 25 μl of Bright Glo® (Promega) luciferase substrate is added to each well. The emited luminiscence is quantified using the ACQUEST™ luminescence system (Molecular Devices). IC50 values were calculated by linear regression analysis of the percentage inhibition of each compound at 12 concentrations.

[4] = test system: KM12 luc; assay: KM12 luc cell proliferation assay (Table 8); type: cell-based; conditions: KM12 luc cells; read-out: KM12 luc IC 50
[5] = test system: parental BaF3 cells; assay: Proliferation of parental (untransformed) Ba/F3 cells maintained with IL3; type: cell-based, murine; conditions: Mus musculus, BaF3, parental Ba/F3 cells; read-out: Ba/F3 IC 50
Protocol: as §1, §2, §5

[6] = target: T4, full length rTrkA and mNGF (Rattus norvegicus, UniProt P35739); assay: Inhibition of proliferation of Ba/F3 cells co-expressing full length rTrkA and mNGF (BaF3/TrkA-NFG); type: cell-based; conditions: BaF3 TRKA-NGF cells, CTG readout
T4 construct: co-expressing full length rTrkA and mNGF; expressed in transfected cells; host or cells: Ba/F3 cells
T4 sequence (P35739 33-799): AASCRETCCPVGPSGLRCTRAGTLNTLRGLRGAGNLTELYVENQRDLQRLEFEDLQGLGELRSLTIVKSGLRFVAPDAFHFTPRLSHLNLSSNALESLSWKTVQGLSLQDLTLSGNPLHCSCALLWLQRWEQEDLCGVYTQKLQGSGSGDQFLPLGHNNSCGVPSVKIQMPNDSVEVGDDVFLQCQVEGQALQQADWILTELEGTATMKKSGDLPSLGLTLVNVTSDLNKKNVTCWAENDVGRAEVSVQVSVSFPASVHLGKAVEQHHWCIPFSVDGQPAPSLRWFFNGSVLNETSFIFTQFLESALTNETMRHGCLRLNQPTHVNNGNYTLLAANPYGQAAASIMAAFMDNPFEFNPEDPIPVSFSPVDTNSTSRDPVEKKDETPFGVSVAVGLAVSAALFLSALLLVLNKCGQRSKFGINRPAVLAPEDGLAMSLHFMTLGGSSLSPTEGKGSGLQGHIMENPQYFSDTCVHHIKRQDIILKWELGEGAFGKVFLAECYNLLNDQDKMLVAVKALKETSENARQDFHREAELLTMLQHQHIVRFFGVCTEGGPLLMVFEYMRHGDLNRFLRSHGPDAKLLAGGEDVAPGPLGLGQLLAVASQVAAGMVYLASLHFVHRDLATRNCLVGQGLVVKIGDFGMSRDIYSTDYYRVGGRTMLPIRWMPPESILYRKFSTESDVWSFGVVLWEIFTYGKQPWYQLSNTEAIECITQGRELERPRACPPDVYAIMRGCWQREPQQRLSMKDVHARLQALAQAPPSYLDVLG
T4 sequence (P01139 122-241 partner): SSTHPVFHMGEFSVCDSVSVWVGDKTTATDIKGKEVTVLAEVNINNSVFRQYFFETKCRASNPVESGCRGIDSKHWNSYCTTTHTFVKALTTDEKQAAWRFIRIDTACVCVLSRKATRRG

T1 sequence (P04629 510-796 limits assumed): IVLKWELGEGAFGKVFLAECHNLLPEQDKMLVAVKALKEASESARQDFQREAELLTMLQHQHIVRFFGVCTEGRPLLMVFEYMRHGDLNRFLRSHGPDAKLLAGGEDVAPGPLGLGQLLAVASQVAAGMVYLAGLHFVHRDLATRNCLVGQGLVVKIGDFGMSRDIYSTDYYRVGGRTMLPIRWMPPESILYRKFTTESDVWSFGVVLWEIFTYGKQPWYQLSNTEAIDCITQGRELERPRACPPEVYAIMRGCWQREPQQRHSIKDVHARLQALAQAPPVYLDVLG
T2 sequence (Q16620 538-822 limits assumed): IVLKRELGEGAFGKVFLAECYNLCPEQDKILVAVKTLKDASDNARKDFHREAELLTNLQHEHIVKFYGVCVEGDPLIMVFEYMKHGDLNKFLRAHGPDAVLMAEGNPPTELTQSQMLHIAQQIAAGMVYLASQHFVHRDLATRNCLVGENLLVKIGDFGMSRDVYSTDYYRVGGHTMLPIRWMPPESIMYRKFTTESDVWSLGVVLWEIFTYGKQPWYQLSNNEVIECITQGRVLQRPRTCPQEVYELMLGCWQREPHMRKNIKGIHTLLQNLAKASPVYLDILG
T3 sequence (Q16288 whole entry, the tested form may be a part): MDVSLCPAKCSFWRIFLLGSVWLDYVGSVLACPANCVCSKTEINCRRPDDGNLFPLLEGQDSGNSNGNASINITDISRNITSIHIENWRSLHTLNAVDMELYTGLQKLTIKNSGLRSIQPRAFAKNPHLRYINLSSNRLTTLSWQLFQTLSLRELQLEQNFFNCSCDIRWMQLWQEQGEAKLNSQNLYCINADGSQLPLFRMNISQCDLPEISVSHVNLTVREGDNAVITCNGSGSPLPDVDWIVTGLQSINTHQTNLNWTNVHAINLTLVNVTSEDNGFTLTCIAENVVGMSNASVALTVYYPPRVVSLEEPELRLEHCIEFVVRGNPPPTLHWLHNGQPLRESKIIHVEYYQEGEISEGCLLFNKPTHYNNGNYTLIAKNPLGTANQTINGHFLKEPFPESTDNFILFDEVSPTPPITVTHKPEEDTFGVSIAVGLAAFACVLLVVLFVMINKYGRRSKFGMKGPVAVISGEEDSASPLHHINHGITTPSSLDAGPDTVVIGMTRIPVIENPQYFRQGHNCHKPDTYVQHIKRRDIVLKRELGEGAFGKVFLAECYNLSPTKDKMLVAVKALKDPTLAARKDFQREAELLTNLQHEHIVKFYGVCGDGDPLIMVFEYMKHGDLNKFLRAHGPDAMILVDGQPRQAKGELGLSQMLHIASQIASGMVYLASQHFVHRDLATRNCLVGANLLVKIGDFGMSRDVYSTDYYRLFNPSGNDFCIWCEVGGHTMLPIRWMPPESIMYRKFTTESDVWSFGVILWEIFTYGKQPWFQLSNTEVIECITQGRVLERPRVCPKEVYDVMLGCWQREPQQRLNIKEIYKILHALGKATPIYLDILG

| Structure (SMILES) | IC50 [1] [nM] | IC50 [2] [nM] | IC50 [3] [nM] | IC50 [4] [nM] | IC50 [5] [nM] | BaF3 TRKA-NGF CTG IC 50 [6] [nM] |
| --- | --- | --- | --- | --- | --- | --- |
| N#Cc1cccc(-n2cnc3ccc(N4CCCC4c4cccc(F)c4)nc32)c1 (stereo not shown) [Table 1-Compound 1] | 210 | 150 | 69 | 230 | 16000 | 680 |
| Fc1cccc(C2COCCN2c2ccc3ncc(-c4cccc(OC5CCNCC5)n4)n3n2)c1 (stereo not shown) [Table 2-Compound 18] | 36 | 36 |  | 22 | > 10000 | 56 |
| O=C1CN(c2cccc(-c3cnc4ccc(N5CCCC5c5cccc(F)c5)nn34)n2)CCN1 (stereo not shown) [Table 4-Compound 5] | 0.7 | 0.4 |  | 1.2 | > 10000 | 2.2 |
| CCN(CC)CCNc1cccc(-c2cnc3ccc(N4CCCC4c4cccc(F)c4)nn23)n1 (stereo not shown) [Table 4-Compound 14] | 21 | 14.9 |  | 30.8 | 5720 | 45.2 |
| OCC(O)CNc1cccc(-c2cnc3ccc(N4CCCC4c4cccc(F)c4)nn23)n1 (stereo not shown) [Table 4-Compound 16] | 6.8 | 1.5 |  | 2.2 | > 10000 | 5.2 |
| OC1CCN(c2cccc(-c3cnc4ccc(N5CCOCC5c5cccc(F)c5)nn34)n2)CC1 (stereo not shown) [Table 7-Compound 1] | 17 | 17 |  | 7.6 | > 10000 | 30 |
| OCc1cccc(-c2cnc3ccc(N4CCCC4c4cccc(F)c4)nn23)n1 (stereo not shown) [Table 7-Compound 2] | 18 | 13 |  | 26 | > 10000 | 31 |
| Cc1cnc(-c2cccc(-c3cnc4ccc(N5CCCC5c5cccc(F)c5)nn34)n2)[nH]1 (stereo not shown) [Table 7-Compound 3] | 6.9 | 6.6 |  | 17 | 3870 | 19 |
| Fc1cccc(C2COCCN2c2ccc3ncc(-c4cccc(N5CC6CC5CN6)n4)n3n2)c1 (stereo not shown) [Table 7-Compound 9] | 59 | 63 |  | 14 | > 10000 | 53 |
| O=C(NCCO)C1CCN(c2cccc(-c3cnc4ccc(N5CCOCC5c5cccc(F)c5)nn34)n2)CC1 (stereo not shown) [Table 7-Compound 12] | 6.1 | 6.7 |  | 1.2 | > 10000 | 8.1 |
| OC1CCN(c2ccc(-c3cccc(-c4cnc5ccc(N6CCCC6c6cccc(F)c6)nn45)n3)cn2)CC1 (stereo not shown) [Table 7-Compound 61] | 8.1 | 7.9 |  | 4 | > 10000 | 9.8 |
| O=C(O)C1CN(c2cccc(-c3cnc4ccc(N5CCCC5c5cccc(F)c5)nn34)n2)C1 (stereo not shown) [Table 7-Compound 116] | 3 | 3 |  | 3 | > 9100 | 8 |
| CC(=O)N[C@@H]1CCN(c2cccc(-c3cnc4ccc(N5CCCC5c5cccc(F)c5)nn34)n2)C1 (stereo partly shown) [Table 7-Compound 119] | 3 | 3 |  | 2 | > 11000 | 4 |
| O=C(c1cccc(-c2cnc3ccc(N4CCCC4c4cccc(F)c4)nn23)n1)N1CCC(O)CC1 (stereo not shown) [Table 7-Compound 158] | 65 | 52 |  | 19 | > 11000 | 87 |
| CC(F)C(=O)N(C)C1CCN(c2cccc(-c3cnc4ccc(N5CCCC5c5cccc(F)c5)nn34)n2)C1 (stereo not shown) [Table 7-Compound 201] | 13 | 15 |  | 10 | > 11000 | 20 |
